Assay results taken from US8710097B2, “Flavonoid dimers and methods of making and using such” (The Hong Kong Polytechnic University, priority 2006, dated 2014).
Converted amounts (≈) assume the structure as drawn. Like-named read-outs stand apart in the source and are kept apart here.

Tests used:
leukemic K562/R7 cells = settings: literature; cited from earlier work
[1] = test system: LeMDR1 overexpressed L. enriettii (LeV160); assay: Leishmania cell viability (MTS) assay; type: cell-based, Leishmania enriettii
Source text: (§1) Cell lines and Cell Culture.

[2] = test system: LeMDR1 knockout (LeMDR1 −/−) L. enriettii; assay: Leishmania cell viability (MTS) assay; type: cell-based, Leishmania enriettii
Source text: as §1

[3] = test system: wild type L. donovani LdAG83 promastigotes; assay: Leishmania cell viability (MTS) assay; type: cell-based, Leishmania donovani; settings: for IC50: read-out: IC50(μM) of synthetic flavonoid, LdAG83
Description: (§2) Cell lines and Cell Culture. Promastigotes of Leishmania enriettii (LePentR50, Le wild type, LeMDR1 −/− and LeMDR1-overexpressed LeV160 mutants) and Leishmania donovani (LdAG83, Ld2001 and Ld39) were employed in this study. The former is a natural infective strain of guinea pig and the latter is a clinical strain, which may cause visceral leishmaniasis in human. Both strains were cultured in Schneider's Drosophila Medium (Invitrogen), pH 6.9 supplemented with 10% (v/v) heat inactivated fetal calf serum (Hyclone) with 4 mM glutamine (Sigma) and 25 μg/mL gentamicin solution (Invitrogen), at 27° C. for 4 days (Cloning and functional analysis of an extrachromosomally amplified multidrug resistance-like gene in Leishmania enriettii. Mol. Biochem. Parasitol 1993, 60, 195-208). […]
(§3) The viability of promastigotes was determined by the Cell Titer 96® Aqueous Assay (Promega) that employs a tetrazolium compound (MTS) and electron coupling reagent, phenazine methosulfate (PMS). Promastigotes were seeded into 96-well flat bottom microtiter plate at 1×10^5 cells per well in a final volume of 100 μL medium. To determine the cytotoxic effects of flavonoid dimers to the parasites, various concentrations of flavonoid dimers were added to the promastigotes. To determine the reversal effects of flavonoid dimers with different spacer lengths, various concentrations of antileishmanial drugs, one of pentamidine or SSG, vinblastine and puromycin was added to the wells with or without flavonoid dimers. The parasites were incubated at 27° C. for 72 hrs. Each concentration of antileishmanials with or without the flavonoid dimers was tested in triplicates in each experiment. A 2 mg/mL MTS and 0.92 mg/mL PMS were mixed at a ratio of 20:1 (MTS: PMS). After 72-hr incubation, 10 μL of MTS:PMS mixture was added into each well of microtiter plate. The plate was then incubated at 27° C. for 4 hrs for color development. After 4 hrs of incubation, the OD values were determined at 490 nm using automatic microtiter plate reader (Bio-Rad).

[4] = test system: pentamidine-resistant L. enriettii LePentR50 promastigotes; assay: microbe, parasite or virus in culture; settings: for pentamidine sensitization: LePentR50, FIG. 18A
Description: (§4) Cell lines and Cell Culture. Promastigotes of Leishmania enriettii (LePentR50, Le wild type, LeMDR1 −/− and LeMDR1-overexpressed LeV160 mutants) and Leishmania donovani (LdAG83, Ld2001 and Ld39) were employed in this study. The former is a natural infective strain of guinea pig and the latter is a clinical strain, which may cause visceral leishmaniasis in human. Both strains were cultured in Schneider's Drosophila Medium (Invitrogen), pH 6.9 supplemented with 10% (v/v) heat inactivated fetal calf serum (Hyclone) with 4 mM glutamine (Sigma) and 25 μg/mL gentamicin solution (Invitrogen), at 27° C. for 4 days (Cloning and functional analysis of an extrachromosomally amplified multidrug resistance-like gene in Leishmania enriettii. Mol. Biochem. Parasitol 1993, 60, 195-208).
(§5) Promastigotes of LeV160 were culture in the presence of 160 μg/mL vinblastine. No pentamidine and vinblastine (Sigma) was added to the Le wild type and LeMDR1 −/− mutant.
as §3

P388/ADR cells [5] = assay: Doxorubicin accumulation; type: cell-based, murine; settings: monomer 10b at double concentration of the dimers, FIG. 11A
Description: (§6) For P388 (both parent and MDR subtype) cells, 1 ml (10^5 cells) confluent cells were aliquot into Eppendorf tube and pre-incubated with flavone dimers for 30 min at 37° C. Doxorubicin (final concentration of 10 μM) was then added and incubated for 2 h at 37° C. at a final concentration of 10 μM. The cell pellets were washed 3 times with cold PBS by using an Eppendorf micro-centrifuge and lysed with 0.3N HCL in 50% ethanol, and sonicated for 30s. After centrifugation at 10000 rpm/min for 3 min, the supernatant was saved. The fluorescence of doxorubicin was measured using a spectrofluorometer (λexcite=470 nm, λemit=585 nm).

MDA435/LCC6 MDR cells [6] = assay: Doxorubicin accumulation; type: cell-based, human; settings: LCC6 MDR; apigenin dimers 10 μM; 20 μM doxorubicin, 2 h
Description: Doxorubicin accumulation. 2.5 ml (10^5 cells/ml) MDA435/LCC6 (both parent and MDR subtype) cells were seeded in each well of 6-well plates. At confluence, culture medium was removed. 2 ml of fresh DMEM with modulators was added and cells were incubated for 30 min at 37° C. Doxorubicin (final concentration of 20 μM) was then added and incubated for 2 h at 37° C. The cells were then harvested by trypsinization.
as §6
In order to understand whether the modulating activity for various anticancer drugs by different dimers is due to their different ability to modulate P-gp mediated drug efflux, their effects on the accumulation of doxorubicin in both MDA435/LCC6 sensitive and resistant cells were investigated. Doxorubicin was a fluorescent drug substrate of P-gp and was used in this experiment to monitor the P-gp mediated drug efflux. Accumulation of doxorubicin in these cells was determined in the presence or absence of apigenin dimers (10 μM) and monomer (20 μM). Verapamil was used as a positive control.

MDA435/LCC6 MDR cells [7] = assay: cells; settings: MDA435/LCC6 MDR; for doxorubicin resistance reversal: monomers; for reversing effect on taxol resistance: monomers at 10 μM
Description: (§7) MDA435/LCC6 and P388 (both parent and MDR subtype) were maintained in DMEM and RPMI 1640 culture medium supplemented with 10% FBS, respectively. RPMI 1640 media also contained 100 units/ml penicillin and 100 μg/ml streptomycin. Cells were cultured at 37° C. in a humidified atmosphere with 5% CO2. A solution of 0.05% trypsin-EDTA was used to detach the MDA435/LCC6 (both wild type and MDR subtype) cells.
(§8) Cell proliferation assay. MDA435/LCC6 and P388 (both parent and MDR subtype) cells were seeded at 2000 and 5000 cells per well, respectively, in 96-well plates. Varying concentrations of anticancer drugs (Doxorubicin, Daunorubicin, Vincristine, Vinblastine, taxol, Mitoxantrone) with or without the flavonoid dimers were added in a final volume of 200 μl and cells were grown for 4 and 3 days for MDA435/LCC6 and P388 (both parent and MDR subtype) cells, respectively. For MDA435/LCC6 (both parent and MDR subtype), the corresponding drugs were added after cell attachment (24 hr incubation). To measure cell proliferation, the cell Titer 960 Aqueous Assay (Promega) was used according to the manufacturer's instructions. Briefly, MTS (2 mg/ml) and PMS (0.92 mg/ml) were mixed in a ratio of 20:1. 30 μl MTS/PMS mixture was added into each well and incubated for 2 hours at 37° C. Optical absorbance at 490 nm was then recorded using an ELISA microtiter plate reader (Bio-Rad). Each experiment was done at least in triplicate and repeated twice. Cytotoxicity of the anticancer drugs was expressed as the fraction of the cells survived relative to the untreated DMSO (0.05%) solvent controls.
MDA435/LCC6 is an estrogen-independent human breast cancer cell line. Its MDR subtype (MDA435/LCC6 MDR) was generated by transducing a retroviral vector directing the constitutive expression of the human MDR1 cDNA, producing a cell line with a classical MDR1 resistance pattern (MDA435/LCC6 and MDA435/LCC6MDR1: ascites models of human breast cancer. Br J Cancer 1996, 73, 154-161). The ability of the apigenin dimers of this invention to reverse taxol resistance in MDA435/LCC6 MDR cells were tested. […] Apigenin monomers 10a and 10b at 10 μM were used as the negative controls.

[8] = test system: SSG-resistant L. donovani Ld39 promastigotes; assay: microbe, parasite or virus in culture; type: cell-based, Leishmania donovani; settings: for IC50: read-out: IC50(μM) of synthetic flavonoid, Ld39; for SSG resistance modulating activity: 12 μM, FIG. 14B
Description: as §2, §3

[9] = test system: tested MDR cell lines (drug resistant breast cancer and leukemia cells); type: cell-based; settings: tested MDR cell lines; 10 μM
Source text: Cell proliferation assay.

P388/ADR cells [10] = assay: cells
Description: as §7, §8

MDA435/LCC6 cells = assay: Doxorubicin accumulation; type: cell-based, human; settings: LCC6, basal P-gp; dimers 10 μM, monomer 20 μM
Description: Doxorubicin accumulation. […] At confluence, culture medium was removed. 2 ml of fresh DMEM with modulators was added and cells were incubated for 30 min at 37° C. Doxorubicin (final concentration of 20 μM) was then added and incubated for 2 h at 37° C. The cells were then harvested by trypsinization.

P388 cells = assay: Doxorubicin accumulation; type: cell-based, murine
Description: as §6

[11] = molecular target: NBD2 cytosolic domain of mouse P-gp (Mus musculus, UniProt P06795); settings: reported in literature; cited from earlier work
[12] = test system: wild type L. enriettii (Le); assay: Leishmania cell viability (MTS) assay; type: cell-based, Leishmania enriettii
Description: as §4, §5
as §3, with “After 72-hr incubation, 10 μL of MTS:PMS mixture was added into each well of microtiter plate. The plate was then incubated at 27° C. for 4 hrs for color development.” left out

[13] = Leishmania enriettii, 72 h, read-out: IC50(μM) of synthetic flavonoid, LePentR50, cytotoxicity of compound alone, 72 hrs
[14] = cytotoxicity of compound alone, 72 hrs
[15] = Leishmania enriettii, read-out: IC50 of pentamidine (μg/ml), no modulator

Sequence of NBD2 cytosolic domain of mouse P-gp (P06795 1033-1271 limits assumed): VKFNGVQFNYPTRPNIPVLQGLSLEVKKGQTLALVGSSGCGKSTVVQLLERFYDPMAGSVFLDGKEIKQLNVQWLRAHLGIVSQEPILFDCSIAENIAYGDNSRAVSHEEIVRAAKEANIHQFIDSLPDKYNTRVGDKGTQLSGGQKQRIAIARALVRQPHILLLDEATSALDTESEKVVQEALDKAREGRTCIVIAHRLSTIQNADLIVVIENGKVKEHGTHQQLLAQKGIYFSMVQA

CC(C)=CCc1c(O)cc2oc(-c3ccccc3)cc(=O)c2c1O [6-Prenylchrysin]
inhibition of P-gp mediated drug efflux (leukemic K562/R7 cells): inhibited P-gp mediated drug efflux

CC(C)=CCc1c(O)cc(O)c2c(=O)cc(-c3ccccc3)oc12 [8-Prenylchrysin]
inhibition of P-gp mediated drug efflux (leukemic K562/R7 cells): inhibited P-gp mediated drug efflux

O=c1cc(-c2ccc(OCCOCCOCCOc3ccc(-c4cc(=O)c5c(O)cc(O)cc5o4)cc3)cc2)oc2cc(O)cc(O)c12 [Compound 9c, 1,10-Bis[4′-((5,7-dihydroxy)-4H-chromen-4-on-2-yl)phenyl]-1,4,7,10-tetraoxadecane]
decrease of IC50 of pentamidine ([1]; LeV160): about 1.8 fold
pentamidine sensitization ([2]; LeMDR1 −/−): 3.8 fold
IC50 ([3]; Leishmania donovani, 72 h): 8 ± 0.3 µM
modulatory effect on SSG sensitivity ([3]; SSG-sensitive wild type LdAG83, FIG. 14D): no modulatory effect
pentamidine sensitization [4]: about 2.7 fold
IC50 [4, 13]: > 200 µM
activity on doxorubicin accumulation (P388/ADR cells [5]): comparable activity to 9d
enhancement of doxorubicin accumulation, folds of control (MDA435/LCC6 MDR cells [6]): 4.5 folds
IC60 of doxorubicin with modulator (MDA435/LCC6 MDR cells [7]; 5 μM dimer, FIG. 5): 1.3 µM
reduction of IC60 of doxorubicin, RF (MDA435/LCC6 MDR cells [7]; 5 μM dimer, FIG. 5): about 3.6 RF
reduction of SSG resistance level ([8]; Ld39, 4 μM, FIGS. 17A and 17B): back to the level of the sensitive strain
SSG sensitization ([8]; Ld39, FIG. 18B): 3.1 fold
IC50 ([8]; Leishmania donovani, 72 h): 11 ± 0.7 µM

O=c1cc(-c2ccc(OCCOCCOCCO)cc2)oc2cc(O)cc(O)c12 [Compound 10a, 9-[4′-((5,7-dihydroxy)-4H-chromen-4-on-2-yl)phenyl]-3,6,9,-trioxanonan-1-ol]
IC50 [3, 14]: > 200 µM
IC50 ([4]; read-out: IC50(μM) of synthetic flavonoid, LePentR50, cytotoxicity of compound alone, 72 hrs): > 200 µM
doxorubicin resistance reversal (MDA435/LCC6 MDR cells [7]): ineffective reversers
reversing effect on taxol resistance (MDA435/LCC6 MDR cells [7]): little reversing effect
SSG resistance modulating activity ([8]; Ld39): did not give any significant modulating activity
IC50 [8, 14]: > 200 µM
anticancer activity of monomers alone [9]: no anticancer activity
modulatory activity on doxorubicin and daunorubicin cytotoxicity (P388/ADR cells [10]): little modulatory activity

O=c1cc(-c2ccc(OCCOCCOCCOCCO)cc2)oc2cc(O)cc(O)c12 [Compound 10b, 12-[4′-((5,7-dihydroxy)-4H-chromen-4-on-2-yl)phenyl]-3,6,9,12-tetraoxadodecan-1-ol]
IC50 ([3]; Leishmania donovani, 72 h): > 200 µM
IC50 [4, 13]: > 200 µM
activity on doxorubicin accumulation (P388/ADR cells [5]): little or no activity at all
doxorubicin resistance reversal (MDA435/LCC6 MDR cells [7]): ineffective reversers
reversing effect on taxol resistance (MDA435/LCC6 MDR cells [7]): little reversing effect
SSG resistance modulating activity ([8]; Ld39): did not give any significant modulating activity
IC50 ([8]; Leishmania donovani, 72 h): > 200 µM
anticancer activity of monomers alone [9]: no anticancer activity
modulatory activity on doxorubicin and daunorubicin cytotoxicity (P388/ADR cells [10]): little modulatory activity

COc1ccc(CCN(C)CCCC(C#N)(c2ccc(OC)c(OC)c2)C(C)C)cc1OC (stereo not drawn) [Verapamil, reference compound]
pentamidine sensitization [4]: less than half-fold sensitization
accumulation of doxorubicin in LCC6 (MDA435/LCC6 cells): unaffected
doxorubicin accumulation in parent sensitive cells (P388 cells): almost unaffected
enhancement of doxorubicin accumulation, folds of control (MDA435/LCC6 MDR cells [6]): 6.2 folds

O=c1c(O)c(-c2ccc(O)cc2)oc2cc(O)cc(O)c12 [kaempferol]
binding to NBD2 cytosolic domain of mouse P-gp [11]: bind directly

N=C(N)c1ccc(OCCCCCOc2ccc(C(=N)N)cc2)cc1 [pentamidine, reference compound]
IC50 [1, 15]: 9 ± 0.1 µg/mL (≈ 26.4 µM)
IC50 [2, 15]: 18.9 ± 0.8 µg/mL (≈ 55.5 µM)
IC50 of pentamidine (μg/ml), no modulator ([12]; Le wild type): 12.0 ± 0.8 µg/mL
IC50 ([12]; Leishmania enriettii, read-out: IC50 of pentamidine (μg/ml), no modulator, Le wild type): ~8.7 µg/mL (≈ 25.6 µM)
survival of LePentR50 ([4]; 60 μg/ml pentamidine alone): 94.0±2.3 % of untreated
IC50 ([4]; Leishmania enriettii, read-out: IC50 of pentamidine alone, LePentR50, no modulator (DMSO)): 117 µg/mL

O=c1c(O)c(-c2ccc(O)c(O)c2)oc2cc(O)cc(O)c12 [quecetin]
binding to NBD2 cytosolic domain of mouse P-gp [11]: bind directly

dehydrosilybin
binding to NBD2 cytosolic domain of mouse P-gp [11]: bind directly
